According to US10144742B2 (Millennium Pharmaceuticals, Inc., priority 2014, dated 2018):
Read-outs that look alike come from different tables or passages of the source.

How the values were obtained:
PC3 cells = assay: PC3 growth inhibition (Cell-titer glo, 72 hours); assay type: cell-based; conditions: Homo sapiens, PC-3, PC3 cells, 72 hours, Cell-titer glo, read-out: Percent Inhibition (PC3 growth inhibition); for inhibition at 1 µM: compound concentration 1 μM; for inhibition at 1.667 µM: compound concentration 1.667 μM
In short: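 PC3 cells in RPMI1640 seeded overnight at 37 °C, 5% CO2, then exposed to compound diluted in AIM serum-free medium for 72 h. Viability by CellTiter-Glo luminescence vs DMSO controls; single-concentration % remaining viability (1 μM or 1.667 μM), or GI50/LD50 from curves.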

hNAMPT protein = hNAMPT protein (Homo sapiens (Human), UniProt P43490); assay: NAMPT enzyme assay (TR-FRET/HTRF, BodiPY ligand, anti 6His-Tb); assay type: binding; conditions: for IC50: NAMPT IC50 range class, read-out: IC50; for inhibition at 1 µM: read-out: Percent Inhibition
In short: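 TR-FRET binding assay in which His-tagged human NAMPT with anti-6His-Tb is displaced by compound from a BodiPY ligand, incubated 1 h at rt in the dark. Excitation was at 320 nm, with the 520/486 nm emission ratio read. IC50 was fitted from inhibition relative to DMSO controls.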

hNAMPT protein, sequence (P43490 whole entry): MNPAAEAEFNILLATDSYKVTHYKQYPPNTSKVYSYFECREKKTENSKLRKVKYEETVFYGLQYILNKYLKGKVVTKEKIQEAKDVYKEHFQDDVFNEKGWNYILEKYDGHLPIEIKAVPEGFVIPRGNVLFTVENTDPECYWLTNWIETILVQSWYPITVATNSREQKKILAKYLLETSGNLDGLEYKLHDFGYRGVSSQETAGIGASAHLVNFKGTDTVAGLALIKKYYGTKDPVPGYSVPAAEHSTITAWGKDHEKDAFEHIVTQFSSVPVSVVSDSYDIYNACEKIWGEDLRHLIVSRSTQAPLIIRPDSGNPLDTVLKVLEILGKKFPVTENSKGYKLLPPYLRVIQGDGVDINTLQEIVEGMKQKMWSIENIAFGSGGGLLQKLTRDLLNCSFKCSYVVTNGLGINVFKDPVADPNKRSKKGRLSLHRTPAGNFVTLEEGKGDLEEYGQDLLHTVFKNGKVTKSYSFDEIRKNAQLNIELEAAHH

Row | SMILES | inhibition at 1 µM (PC3 cells) | IC50 (hNAMPT protein) | inhibition at 1 µM (hNAMPT protein; compound concentration 1 μM) | inhibition at 1 µM (hNAMPT protein) | inhibition at 1.667 µM (PC3 cells)
1 | O=C(NCCn1nnnc1S)c1ccc2nc(-c3ccc(F)cc3)c(-c3ccc(F)cc3)nc2c1 [Compound I-139, 2,3-bis(4-fluorophenyl)-N-[2-(5-sulfanyl-1H-tetrazol-1-yl)ethyl]quinoxaline-6-carboxamide] | 99% | 1000 to 2000 nM | 41% | – | –
2 | O=C(NCCCn1ccnc1)c1ccc2nc(-c3ccc4c(c3)CCO4)c(-c3ccccc3)nc2c1 [Compound I-140, 2-(2,3-dihydro-1-benzofuran-5-yl)-N-[3-(1H-imidazol-1-yl)propyl]-3-phenylquinoxaline-6-carboxamide] | -8% | 100 to 500 nM | 79% | – | –
3 | O=C(NCCCn1ccnc1)c1ccc2nc(C3=CCOCC3)c(-c3ccccc3)nc2c1 [Compound I-141, 2-(3,6-dihydro-2H-pyran-4-yl)-N-[3-(1H-imidazol-1-yl)propyl]-3-phenylquinoxaline-6-carboxamide] | -8% | 100 to 500 nM | 74% | – | –
4 | N#Cc1nc2ccc(C(=O)NCCCn3ccnc3)cc2nc1-c1ccccc1 [Compound I-142, 2-Cyano-N-[3-(1H-imidazol-1-yl)propyl]-3-phenylquinoxaline-6-carboxamide] | 95% | 2000 to 10000 nM | – | 24% | –
5 | Cn1cnc2cc(-c3nc4cc(C(=O)NCCCn5ccnc5)ccc4nc3-c3ccccc3)ccc21 [Compound I-143, N-[3-(1H-imidazol-1-yl)propyl]-3-(1-methyl-1H-benzimidazol-5-yl)-2-phenylquinoxaline-6-carboxamide] | 103% | 2000 to 10000 nM | 3% | – | –
6 | O=C(NCCCn1ccnc1)c1ccc2nc(-c3ccccc3)c(N3CCOCC3)nc2c1 [Compound I-144, N-[3-(1H-imidazol-1-yl)propyl]-3-(morpholin-4-yl)-2-phenylquinoxaline-6-carboxamide] | 2% | 1000 to 2000 nM | 43% | – | –
7 | NS(=O)(=O)c1ccc(-c2nc3ccc(C(=O)NCCCn4ccnc4)cc3nc2-c2ccccc2)cc1 [Compound I-145, N-[3-(1H-imidazol-1-yl)propyl]-3-phenyl-2-(4-sulfamoylphenyl)quinoxaline-6-carboxamide] | -7% | 100 to 500 nM | 76% | – | –
8 | O=C(NCCCn1ccnc1)c1ccc2nc(N3CCN4CCCC4C3)c(-c3ccccc3)nc2c1 (stereo not drawn) [Compound I-146, 2-(hexahydropyrrolo[1,2-a]pyrazin-2(1H)-yl)-N-[3-(1H-imidazol-1-yl)propyl]-3-phenylquinoxaline-6-carboxamide] | -7% | 100 to 500 nM | 76% | – | –
9 | O=C(NCc1ccc2nccn2c1)c1ccc2nc(N3CCOCC3)c(-c3ccc(F)cc3)nc2c1 [Compound I-147, 3-(4-fluorophenyl)-N-(imidazo[1,2-a]pyridin-6-ylmethyl)-2-(morpholin-4-yl)quinoxaline-6-carboxamide] | – | < 100 nM | 95% | – | 2%
10 | CC(C)(C)OC(=O)NCc1ccc(-c2nc3ccc(C(=O)NCCCn4ccnc4)cc3nc2-c2ccccc2)cc1 [Compound I-148, tert-Butyl [4-(6-{[3-(1H-imidazol-1-yl)propyl]carbamoyl}-3-phenylquinoxalin-2-yl)benzyl]carbamate] | 1% | 100 to 500 nM | – | 85% | –
11 | O=C(NCCCn1ccnc1)c1ccc2nc(-c3ccc4[nH]ccc4c3)c(-c3ccccc3)nc2c1 [Compound I-149, N-[3-(1H-imidazol-1-yl)propyl]-2-(1H-indol-5-yl)-3-phenylquinoxaline-6-carboxamide] | -8% | 100 to 500 nM | 86% | – | –
12 | CS(=O)(=O)C1CCN(c2nc3ccc(C(=O)NCCCn4ccnc4)cc3nc2-c2ccccc2)C1 (stereo not drawn) [Compound I-150, N-[3-(1H-imidazo-1-yl)propyl]-2-[3-(methylsulfonyl)pyrrolidin-1-yl]-3-phenylquinoxaline-6-carboxamide] | -7% | 100 to 500 nM | 75% | – | –
13 | Cn1ccnc1CCNC(=O)c1ccc2nc(-c3ccc(F)cc3)c(-c3ccc(F)cc3)nc2c1 [Compound I-151, 2,3-Bis(4-fluorophenyl)-N-[2-(1-methyl-1H-imidazol-2-yl)ethyl]quinoxaline-6-carboxamide] | 96% | 100 to 500 nM | 79% | – | –
14 | CC(C)(C)OC(=O)NCc1cccc(-c2nc3ccc(C(=O)NCCCn4ccnc4)cc3nc2-c2ccccc2)c1 [Compound I-152, tert-butyl[3-(6-{[3-(1H-imidazol-1-yl)propyl]carbamoyl}-3-phenylquinoxalin-2-yl)benzyl]carbamate] | 3% | 500 to 1000 nM | 62% | – | –
15 | O=C(NCCCn1ccnc1)c1ccc2nc(-c3ccccc3)c(N3CCC(O)C3)nc2c1 (stereo not drawn) [Compound I-153, 3-(3-hydroxypyrrolidin-1-yl)-N-[3-(1H-imidazol-1-yl)propyl]-2-phenylquinoxaline-6-carboxamide] | 14% | 2000 to 10000 nM | 22% | – | –
16 | O=C(NCCCc1ncc[nH]1)c1ccc2nc(N3CC4(COC4)C3)c(-c3ccc(F)cc3)nc2c1 [Compound I-154, 3-(4-fluorophenyl)-N-[3-(1H-imidazol-2-yl)propyl]-2-(2-oxa-6-azaspiro[3.3]hept-6-yl)quinoxaline-6-carboxamide] | – | < 100 nM | 98% | – | 2%
17 | O=C(c1ccc2nc(-c3ccc(F)cc3)c(-c3ccc(F)cc3)nc2c1)N1CCOC(c2cccnc2)C1 (stereo not drawn) [Compound I-155, [2,3-bis(4-fluorophenyl)quinoxalin-6-yl][2-(pyridin-3-yl)morpholin-4-yl]methanone] | 103% | 2000 to 10000 nM | 12% | – | –
18 | O=C(NCc1ccc2nccn2c1)c1ccc2nc(N3CCC(O)CC3)c(-c3ccc(F)cc3)nc2c1 [Compound I-156, 3-(4-Fluorophenyl)-2-(4-hydroxypiperidin-1-yl)-N-(imidazo[1,2-a]pyridin-6-ylmethyl)quinoxaline-6-carboxamide] | – | < 100 nM | 97% | – | 2%
19 | N#Cc1cccc(-c2nc3cc(C(=O)NCCCn4ccnc4)ccc3nc2-c2ccccc2)c1 [Compound I-157, 3-(3-cyanophenyl)-N-[3-(1H-imidazol-1-yl)propyl]-2-phenylquinoxaline-6-carboxamide] | 2% | 1000 to 2000 nM | 40% | – | –
20 | Cc1nc2ccc(C(=O)NCCCn3ccnc3)cc2nc1-c1ccccc1 [Compound I-158, N-[3-(1H-imidazol-1-yl)propyl]-2-methyl-3-phenylquinoxaline-6-carboxamide] | 0% | 1000 to 2000 nM | 42% | – | –
21 | O=C(NCCCn1ccnc1)c1ccc2nc(N3CC4CC4C3)c(-c3ccccc3)nc2c1 (stereo not drawn) [Compound I-159, 2-(3-azabicyclo[3.1.0]hex-3-yl)-N-[3-(1H-imidazol-1-yl)propyl]-3-phenylquinoxaline-6-carboxamide] | -6% | 100 to 500 nM | 71% | – | –
22 | O=C(NCCCn1ccnc1)c1ccc2nc(N3CCCCC3)c(-c3ccccc3)nc2c1 [Compound I-161, N-[3-(1H-imidazol-1-yl)propyl]-3-phenyl-2-(piperidin-1-yl)quinoxaline-6-carboxamide] | -7% | < 100 nM | 89% | – | –
23 | O=C(NCCCn1ccnc1)c1ccc2nc(-c3ccccc3)c(C3=CCOCC3)nc2c1 [Compound I-162, 3-(3,6-dihydro-2H-pyran-4-yl)-N-[3-(1H-imidazol-1-yl)propyl]-2-phenylquinoxaline-6-carboxamide] | 1% | 1000 to 2000 nM | 44% | – | –
24 | O=C(c1ccc2nc(-c3ccc(F)cc3)c(-c3ccc(F)cc3)nc2c1)N1CCC(c2ccccn2)C1 (stereo not drawn) [Compound I-163, [2,3-bis(4-fluorophenyl)quinoxalin-6-yl][3-(pyridin-2-yl)pyrrolidin-1-yl]methanone] | 86% | 2000 to 10000 nM | 17% | – | –
25 | O=C(NCCc1nccs1)c1ccc2nc(-c3ccc(F)cc3)c(-c3ccc(F)cc3)nc2c1 [Compound I-164, 2,3-Bis(4-fluorophenyl)-N-[2-(1,3-thiazol-2-yl)ethyl]quinoxaline-6-carboxamide] | 101% | 100 to 500 nM | – | 83% | –
26 | CN1CC=C(c2nc3ccc(C(=O)NCCCn4ccnc4)cc3nc2-c2ccccc2)CC1 [Compound I-165, N-[3-(1H-imidazol-1-yl)propyl]-2-(1-methyl-1,2,3,6-tetrahydropyridin-4-yl)-3-phenylquinoxaline-6-carboxamide] | -7% | 100 to 500 nM | 78% | – | –
27 | O=C(NCCCn1ccnc1)c1ccc2nc(-c3ccccc3)c(N3CCCCC3)nc2c1 [Compound I-166, N-[3-(1H-imidazol-1-yl)propyl]-2-phenyl-3-(piperidin-1-yl)quinoxaline-6-carboxamide] | 5% | 2000 to 10000 nM | 31% | – | –
28 | Cn1cc(-c2nc3cc(C(=O)NCCCn4ccnc4)ccc3nc2-c2ccccc2)cn1 [Compound I-167, N-[3-(1H-imidazol-1-yl)propyl]-3-(1-methyl-1H-pyrazol-4-yl)-2-phenylquinoxaline-6-carboxamide] | 1% | 2000 to 10000 nM | 24% | – | –
